From patent publication US20230257817A1, “IDENTIFICATION OF GENOME REGIONS ASSOCIATED WITH KIDNEY DISEASE AND TREATMENT” (THE RESEARCH INSTITUTE AT NATIONWIDE CHILDREN'S HOSPITAL, priority 2020, published 2023)
“Also recorded” adds a separate entry of the source.

Key:
glomerular genes = test: RNA sequencing of glomeruli isolated from PAN-NS rats (glomerular transcriptome); format: in vivo, rat
Protocol: (§1) Proteinuria was induced in male Wister rats (body weight[…], age˜45-50 d) by single tail vein injection of Puromycin aminonucleoside (PAN, #P7130, Sigma; St. Louis, Mo.) −50 mg/kg, n=4 on Day 0, while the control group received saline injection (n=4). PAN-induced proteinuria was treated daily with methylprednisolone (15 mg/kg, n=4, Solu-Medrol; Pfizer Inc., New York, N.Y.) via intraperitoneal injection or with pioglitazone (10 mg/kg, Actos; Takeda, Deerfield, Ill.) via oral gavage until day 11 of post PAN-injection. Morning spot urine samples were collected on Day 0 (before PAN injection) and day 11 for urinary protein: creatinine ratio (UPC) analysis. Kidneys were harvested at day 11 and were processed for glomerular isolation.
Glomeruli were isolated using sieving method where kidney cortex was pared using curved scissors into the petri lid with cold PBS, minced well, drained and washed onto pre-moistened No. 80 sieve. Using squeeze bottle, minced kidneys on No. 80 sieve were washed thoroughly and transferred to No. 140 sieve. No. 140 and 200 are stacked together to catch smaller material. Kidney material was then ground through No. 140 sieve with very gentle pressure using bottom of cold round 250 ml beaker. The ground kidney was washed back and forth well over sieve No. 140 onto No. 200. This catch material is the glomeruli. The glomeruli were washed with cold PBS to get rid of any contaminants and the final washed material was collected into labeled 50 ml conical tube. The tube was spun at ˜1500 rpm for 3 min Glomeruli precipitate was then suspended in RLT buffer (Qiagen, Germantown, Md.) containing β-mercaptoethanol (#M6250 Sigma).
(§2) Total RNA from the isolated glomeruli was isolated using the RNeasy mini Kit (Qiagen) according to the manufacturer's instructions. The purity and yield of RNA was determined by measuring the absorbance at 230, 260 and 280 nm. Briefly, 1 ug of RNA was subjected to DNase (Ambion, Thermo Fisher Scientific) digestion at 37° C. for 30 min followed by DNase inactivation with 5 mM EDTA at 75° C. for 10 min.
RNA quality was assessed using the Agilent 2100 Bioanalyzer and RNA Nano Chip Kit (Agilent Technologies, CA) to ensure that the RNA Integrity Number (RIN) was ≥7. RNA-seq libraries were then generated using TruSeq Standard total RNA with Ribo-Zero Globin Complete kit (Illumina, CA). Briefly, ribosomal RNA (rRNA) was removed from 350 ng of total RNA with biotinylated, target-specific oligos combined with Ribo-Zero rRNA removal beads from the Human/Mouse/Rat Globin kit. To generate directional signals in RNA seq data, libraries were constructed from first strand cDNA using ScriptSeq™ v2 RNA-Seq library preparation kit (Epicentre Biotechnologies, WI). Briefly, 50 ng of rRNA-depleted RNA was fragmented and reverse transcribed using random primers containing a 5′ tagging sequence, followed by 3′ end tagging with a terminal-tagging oligo to yield di-tagged, single-stranded cDNA. Following purification using a magnetic bead-based approach, the di-tagged cDNA was amplified by limit-cycle PCR using primer pairs that anneal to tagging sequences and add adaptor sequences required for sequencing cluster generation. Amplified RNA-seq libraries were purified using AMPure XP System (Beckman Coulter). The quality of libraries was determined via Agilent 2200 TapeStation using High Sensitivity D1000 tape, and quantified using Kappa SYBR®Fast qPCR kit (KAPA Biosystems, Inc, MA). Approximately, 90-125 million paired-end 150 bp reads were generated per sample using the Illumina HiSeq4000 platform. Raw data were converted to FASTQ using Illumina's bc12fastq application. Sequencing adapters matching at least 6 bases were then removed from the reads, as well as low-quality bases (<10) using v1.10 of cutadapt. […]

rats with PAN-induced NS [1] = test: PAN-induced nephrotic syndrome rat model, urine protein-to-creatinine ratio; format: in vivo; conditions: for Urine protein to creatinine ratio (UPCR): day 11 after single PAN dose 50 mg/kg IV, MP 15 mg/kg i.p. daily, Pio 10 mg/kg oral gavage daily, n=4 rats per group
Protocol: as §1
UPC was measured by Antech Diagnostics (Morrisville, N.C.) using standard techniques that are fully compliant with Good Laboratory practice regulations. See Agrawal et al., Sci Rep 6, 24392 (2016)

[2] = test system: human primary mesangial cells; test: Real-time PCR of 17 genes-of-interest in PAN-exposed human primary mesangial cells; format: cell-based; conditions: PAN 5 μg/ml, 24 h and 48 h
Protocol: (§3) The conditionally immortalized human podocyte cell line (MS13) and human primary mesangial cells were cultured as previously described. Sharma et al., J Am Soc Nephrol 28, 2618-2630 (2017). 3×10^4 undifferentiated podocytes were plated on a 6-well plate and were incubated at 37° C. for 12-14 days prior to the start of experiment whereas 1×10^5 mesangial cells were plated on a 6-well plate a day prior to start of experiment. Further, podocytes and mesangial cells were serum starved 0/N with 1% FCS containing RPMI media, before the experiment. The following day, podocytes were exposed to 2.5 and 5 μg/ml of PAN for 24 and 48 hrs whereas in case of mesangial cells, 5 μg/ml of PAN (Sigma; St. Louis, Mo.) was added for 24 and 48 hrs. Cells were lysed in 400 μl of RNA lysis buffer provided by Ambion (#AM1560).
as §2, with “cultured podocytes and mesangial cells” for “isolated glomeruli”, “miRVANA miRNA isolation kit (Ambion, ThermoScientific)” for “RNeasy mini Kit (Qiagen)”, “instructions. The RNA was eluted in 40 μl of nuclease free water.” for “instructions.”, “μg” for “ug”
(§4) […] of total isolated RNA was reverse transcribed to cDNA by iScript cDNA synthesis kit according to manufacturer's instructions (#1708890. Bio-Rad). The resulting cDNA was diluted to 1:5 with nuclease free water. Diluted cDNA was finally used for relative mRNA quantitation of 17 targets-of-interest using SYBER green based Bio-Rad CFX96 Real-Time PCR machine (Bio-Rad Labs, Hercules, Calif.). Both RPL19 and PPIA were used as reference genes.

[3] = test system: human podocyte cell line (MS13); test: Real-time PCR of 17 genes-of-interest in PAN-exposed human podocyte cell line; format: cell-based; conditions: PAN 2.5 and 5 μg/ml, 24 h and 48 h
Protocol: as §3
as §2, with “cultured podocytes and mesangial cells” for “isolated glomeruli”, “miRVANA miRNA isolation kit (Ambion, ThermoScientific)” for “RNeasy mini Kit (Qiagen)”, “instructions. The RNA was eluted in 40 μl of nuclease free water.” for “instructions.”, “μg” for “ug”
as §4

rats with PAN-induced NS [4] = conditions: earlier study, Agrawal et al., Sci Rep 6, 24392 (2016); cited from earlier work
[5] = PAN-NS glomeruli, day 11, FDR<0.05, of 1,872 DEGs
[6] = overlap analysis, common to both treatments

Structure (SMILES): CN(C)c1ncnc2c1ncn2[C@@H]1O[C@H](CO)[C@@H](N)[C@H]1O [PAN, Puromycin aminonucleoside]
- number of glomerular genes significantly downregulated compared to healthy controls (glomerular genes; [5]): 858
- number of glomerular genes significantly upregulated compared to healthy controls (glomerular genes; [5]): 1,014
- Urine protein to creatinine ratio (UPCR) (rats with PAN-induced NS [1]): 57.2 ± 41.6 mg/mg
- CPT1B, PDK4, ANGPTL4, TAGLN and CDKN1A mRNA expression [2]: significant increase in expression
- SERPINE1, MMP14, CCL2, LIF, BIRC5 mRNA expression [2]: did not follow the expected pattern
- MMP2 mRNA expression ([2]; P=0.007 vs. controls): induced; also recorded: markedly upregulated
- ACTA2 mRNA expression ([2]; P=0.045 vs. controls): induced; also recorded: markedly upregulated
- CPT1B, PDK4, ANGPTL4, TAGLN and CDKN1A mRNA expression [3]: significant increase in expression
- SERPINE1, MMP14, CCL2, LIF, BIRC5 mRNA expression [3]: did not follow the expected pattern
- LGALS3 mRNA expression ([3]; P=0.0003 vs. controls): induction of expression; also recorded: exclusively enhanced

Structure (SMILES): CCc1ccc(CCOc2ccc(CC3SC(=O)NC3=O)cc2)nc1 (stereo not shown) [Pio, pioglitazone]
- effect on transcriptional profiles of endothelial cell-specific genes (glomerular genes; 42 endothelial genes): neither MP nor Pio treatment had notable effects
- PAN-induced gene expression alterations in podocyte- and mesangial cell-specific gene clusters (glomerular genes; 66 podocyte and 43 mesangial genes, PCA plots): substantially reversed
- number of the 858 glomerular genes downregulated in PAN-NS significantly ameliorated (glomerular genes; FDR<0.05 vs PAN): 144
- number of the 1,014 glomerular genes upregulated in PAN-NS significantly ameliorated (glomerular genes; FDR<0.05 vs PAN): 346
- share of the 858 glomerular genes downregulated in PAN-NS significantly ameliorated (glomerular genes; FDR<0.05 vs PAN): 17%
- share of the 1,014 glomerular genes upregulated in PAN-NS significantly ameliorated (glomerular genes; FDR<0.05 vs PAN): 34%
- PAN-induced dysregulation of glomerular gene sets associated with extracellular matrix and cyclins (GSEA) (glomerular genes; GSEA, FDR<0.05): significantly ameliorated
- number of DEGs significantly induced by PAN but ameliorated by both MP and Pio (glomerular genes; [6]): 319
- number of DEGs significantly suppressed by PAN but ameliorated by both MP and Pio (glomerular genes; [6]): 126
- reduction of proteinuria (UPCR) vs PAN (rats with PAN-induced NS [1]; day 11, PAN+MP or PAN+Pio vs PAN): 94%
- Urine protein to creatinine ratio (UPCR) (rats with PAN-induced NS [1]): 3.45 ± 0.82 mg/mg
- proteinuria in PAN-induced rat model of NS, previously reported (rats with PAN-induced NS [4]): significantly reduced proteinuria; also recorded: significant proteinuria reduction
